Experimental findings from PubChem BioAssay (NCI) are described below.

Test systems include LOX IMVI melanoma; A498 renal; MOLT-4 leukemia; MDA-MB-231 breast; ACHN renal; A549 NSCLC; T-47D breast; RPMI-8226 leukemia; OVCAR-4 ovarian; HOP-92 NSCLC.
Holding throughout (test): DTP human tumour cell line panel, 48 h

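Where inhibition never reached the appropriate level, the endpoint shown equals the highest concentration tested. Otherwise, values were interpolated linearly from a five-concentration, 48-hour dose response in 96-well plates. GI50 is the concentration that inhibits growth by half. Definition used: TGI = concentration required for complete inhibition of growth.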 Some results are limits rather than exact numbers.

As usually defined, the GI50 is the concentration giving 50% growth inhibition. For orientation: TGI means the concentration giving total growth inhibition. Take `N#Cc1c(NC(=O)NCc2ccccc2)sc2c1CCCCC2`: the GI50 with LOX IMVI melanoma is 0.573 µM; in the experiment with A498 renal, 0.218 µM; in the experiment with MOLT-4 leukemia, 0.456 µM; with MDA-MB-231 breast it was 0.973 µM; in the experiment with ACHN renal it was 0.629 µM; in the experiment with A549 NSCLC it was 0.626 µM. For the same compound, the GI50 in the experiment on T-47D breast was 0.343 µM; in the experiment on RPMI-8226 leukemia it was 0.397 µM; in the experiment on OVCAR-4 ovarian, 1.32 µM; in the experiment on HOP-92 NSCLC, 0.547 µM. The total growth inhibition concentration (TGI) is greater than 100 µM with LOX IMVI melanoma; 1.1 µM with A498 renal; greater than 100 µM in the experiment with MOLT-4 leukemia; 13.9 µM in the experiment on MDA-MB-231 breast; greater than 100 µM with ACHN renal; greater than 100 µM in the experiment on A549 NSCLC. In addition, the TGI in the experiment with T-47D breast was greater than 100 µM; in the experiment with OVCAR-4 ovarian, greater than 100 µM; with HOP-92 NSCLC, 20.9 µM.
Regarding `O=C(Nc1ccc2ncccc2c1)Nc1ccc2ncccc2c1`, the TGI with LOX IMVI melanoma, in the experiment with A498 renal, with MOLT-4 leukemia, with MDA-MB-231 breast, in the experiment on ACHN renal and with A549 NSCLC was greater than 100 µM in each case. The TGI in the experiment with T-47D breast, with RPMI-8226 leukemia, in the experiment with OVCAR-4 ovarian and in the experiment on HOP-92 NSCLC was greater than 100 µM each time.
On to `COc1ccc(OC)c2c1[nH]c(=O)c1c3ccccc3cn21`, for which the GI50 with LOX IMVI melanoma is 1.4 µM; in the experiment on A498 renal, 1.77 µM; with MOLT-4 leukemia, 0.581 µM; in the experiment with MDA-MB-231 breast, 1.4 µM; in the experiment with ACHN renal, 1.11 µM; in the experiment on A549 NSCLC, 1.02 µM. The GI50 is 1.3 µM in the experiment on T-47D breast, 1.07 µM in the experiment with RPMI-8226 leukemia, 1.38 µM with OVCAR-4 ovarian and 1.5 µM in the experiment on HOP-92 NSCLC. Besides, the TGI in the experiment with LOX IMVI melanoma was found to be 2.88 µM; with A498 renal it was 3.2 µM; in the experiment on MOLT-4 leukemia, 2.3 µM; with MDA-MB-231 breast it was 2.86 µM; in the experiment with ACHN renal, 2.37 µM; with A549 NSCLC, 2.37 µM. The TGI with T-47D breast worked out at 4.07 µM; with RPMI-8226 leukemia it was 3.21 µM; in the experiment with OVCAR-4 ovarian, 3.1 µM; in the experiment with HOP-92 NSCLC, 3.31 µM.
With `COc1cccc(C2CC(C)(O)Oc3cc4c(cc32)OCO4)c1O` (centres undefined), the total growth inhibition concentration (TGI) in the experiment with LOX IMVI melanoma was greater than 100 µM; in the experiment with A498 renal, greater than 100 µM; in the experiment on MOLT-4 leukemia it was greater than 94.3 µM; in the experiment on MDA-MB-231 breast it was 67.7 µM; with ACHN renal, greater than 100 µM; with A549 NSCLC it was greater than 100 µM. Also, the total growth inhibition concentration (TGI) in the experiment on T-47D breast was greater than 100 µM; with RPMI-8226 leukemia, greater than 78.2 µM; in the experiment on OVCAR-4 ovarian, greater than 100 µM; in the experiment with HOP-92 NSCLC, 92.5 µM.
For the compound `CSC1=Nc2c(c(C)c(C)n2COC(CO)CO)C2=NC(=O)C(C)N12` (centres undefined), the GI50 in the experiment on LOX IMVI melanoma, with A498 renal, in the experiment with MOLT-4 leukemia, with MDA-MB-231 breast, with ACHN renal and with A549 NSCLC was greater than 100 µM each time. The GI50 in the experiment with T-47D breast, in the experiment with RPMI-8226 leukemia, with OVCAR-4 ovarian and in the experiment with HOP-92 NSCLC was greater than 100 µM in each case. Besides, the TGI in the experiment on LOX IMVI melanoma, with A498 renal, with MOLT-4 leukemia, with MDA-MB-231 breast, in the experiment on ACHN renal and with A549 NSCLC was greater than 100 µM each time. Also, the TGI in the experiment with T-47D breast, in the experiment on RPMI-8226 leukemia, in the experiment on OVCAR-4 ovarian and in the experiment on HOP-92 NSCLC was greater than 100 µM each time.
Turning to `N#Cc1c(N)nc(N2CCOCC2)c(C#N)c1-c1ccncc1`, the GI50 in the experiment on LOX IMVI melanoma is 80.1 µM; in the experiment on A498 renal, 18.6 µM; in the experiment on MOLT-4 leukemia, greater than 100 µM; with MDA-MB-231 breast, 21.6 µM; with ACHN renal, 40.7 µM; with A549 NSCLC, greater than 100 µM. The GI50 in the experiment with T-47D breast is 12.6 µM; with RPMI-8226 leukemia it was greater than 100 µM; in the experiment with OVCAR-4 ovarian, greater than 100 µM; in the experiment with HOP-92 NSCLC, 31.7 µM. The total growth inhibition concentration (TGI) in the experiment on LOX IMVI melanoma was greater than 100 µM; in the experiment on A498 renal, 66.1 µM; with MOLT-4 leukemia, greater than 100 µM; in the experiment on MDA-MB-231 breast it was greater than 100 µM; in the experiment on ACHN renal it was greater than 100 µM; in the experiment with A549 NSCLC, greater than 100 µM. Moreover, the TGI with T-47D breast was 51.7 µM; in the experiment with RPMI-8226 leukemia it was greater than 100 µM; in the experiment on OVCAR-4 ovarian it was greater than 100 µM; in the experiment with HOP-92 NSCLC it was greater than 100 µM.
Consider `CCOC(=O)c1ccc(NC(=O)Oc2ccc3c(C)cc(=O)oc3c2)cc1`, for which the TGI in the experiment on LOX IMVI melanoma was greater than 100 µM; with A498 renal, greater than 100 µM; in the experiment with MOLT-4 leukemia it was 58 µM; in the experiment with MDA-MB-231 breast, 82.8 µM; in the experiment with ACHN renal, greater than 100 µM; in the experiment with A549 NSCLC, greater than 100 µM. Further, the TGI in the experiment with T-47D breast was 78 µM; in the experiment on RPMI-8226 leukemia, 72.9 µM; in the experiment with OVCAR-4 ovarian it was greater than 100 µM; with HOP-92 NSCLC, 54.1 µM.
`Cn1c(I)c(C#CCO[Si](C)(C)C(C)(C)C)c(=O)[nH]c1=O`: the GI50 was 1.83 µM in the experiment on LOX IMVI melanoma; 19.9 µM with A498 renal; 1.82 µM with MOLT-4 leukemia; 17.3 µM with MDA-MB-231 breast; 15.9 µM with ACHN renal; greater than 100 µM in the experiment on A549 NSCLC. Further, the GI50 was 2.92 µM in the experiment with T-47D breast, 4.39 µM with RPMI-8226 leukemia, 10.1 µM in the experiment with OVCAR-4 ovarian and 2.14 µM in the experiment on HOP-92 NSCLC. Moreover, the concentration for total growth inhibition (TGI) in the experiment on LOX IMVI melanoma is 4.42 µM; in the experiment with A498 renal, 38 µM; in the experiment with MOLT-4 leukemia, 4.32 µM; in the experiment with MDA-MB-231 breast, 33.1 µM; with ACHN renal it was 29.5 µM; with A549 NSCLC it was greater than 100 µM. Further, the concentration for total growth inhibition (TGI) with T-47D breast came to 15 µM; with RPMI-8226 leukemia, 14.2 µM; in the experiment on OVCAR-4 ovarian, 27.4 µM; in the experiment with HOP-92 NSCLC it was 4.67 µM.
As to `C(=NCCN1CCOCC1)=NC1CCCCC1`, the total growth inhibition concentration (TGI) in the experiment with LOX IMVI melanoma, in the experiment with A498 renal, with MOLT-4 leukemia, with MDA-MB-231 breast, with ACHN renal and in the experiment with A549 NSCLC was greater than 100 µM throughout. For the same compound, the TGI in the experiment with T-47D breast, in the experiment with RPMI-8226 leukemia, in the experiment with OVCAR-4 ovarian and in the experiment with HOP-92 NSCLC was greater than 100 µM in each case.
In the case of `O=C(O)c1nnsc1-c1ccc(-c2snnc2C(=O)O)cc1`, the TGI is greater than 100 µM with LOX IMVI melanoma; greater than 100 µM with A498 renal; 51.4 µM in the experiment with MOLT-4 leukemia; greater than 100 µM with MDA-MB-231 breast; greater than 100 µM in the experiment with ACHN renal; greater than 100 µM with A549 NSCLC. Besides, the TGI in the experiment on T-47D breast was greater than 100 µM; in the experiment with RPMI-8226 leukemia, 68.6 µM; with OVCAR-4 ovarian, greater than 100 µM; in the experiment on HOP-92 NSCLC it was greater than 100 µM.
